Experimental data reported in ChEMBL document CHEMBL4765415 (Eur J Med Chem, 2020).
Activity calls are given as the source filed them. The rule behind the calls is not given here.

How the values were obtained:
Mus musculus [1] = assay: Analgesic activity in albino mouse assessed as inhibition of acetic acid-induced writhing at 10 mg/kg, po administered 1 hr prior to acetic acid challenge and measured after 5 to 15 mins relative to celecoxib; format: functional; conditions: time 60-75 min
[2] = molecular target: Prostaglandin G/H synthase 1 (Homo sapiens, UniProt P23219); assay: Inhibition of recombinant human COX1 using arachidonic acid as substrate preincubated for 5 mins followed by substrate addition and measured after 2 mins by Ellman's reagent based enzyme immunoassay; format: ADME
Prostaglandin G/H synthase 1, sequence (P23219 whole entry): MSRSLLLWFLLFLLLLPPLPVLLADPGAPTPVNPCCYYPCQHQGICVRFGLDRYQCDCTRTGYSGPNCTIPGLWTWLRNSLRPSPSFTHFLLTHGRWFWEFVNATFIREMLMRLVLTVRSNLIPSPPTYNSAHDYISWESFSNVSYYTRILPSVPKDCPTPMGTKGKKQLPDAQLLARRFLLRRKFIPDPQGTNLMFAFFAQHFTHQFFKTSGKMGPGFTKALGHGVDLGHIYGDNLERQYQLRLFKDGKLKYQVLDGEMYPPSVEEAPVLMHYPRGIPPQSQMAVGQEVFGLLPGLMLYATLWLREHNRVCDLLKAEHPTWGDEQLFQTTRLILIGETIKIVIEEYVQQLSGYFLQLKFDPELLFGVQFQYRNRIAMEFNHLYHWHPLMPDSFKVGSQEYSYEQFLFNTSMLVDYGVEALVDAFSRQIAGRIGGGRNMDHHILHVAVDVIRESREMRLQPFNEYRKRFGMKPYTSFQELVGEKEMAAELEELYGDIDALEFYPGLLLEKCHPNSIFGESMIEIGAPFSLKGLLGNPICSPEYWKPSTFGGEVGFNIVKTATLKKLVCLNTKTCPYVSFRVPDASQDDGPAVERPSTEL

[3] = molecular target: T1, Prostaglandin G/H synthase 2 (Homo sapiens, UniProt P35354); assay: Inhibition of recombinant human COX2 using arachidonic acid as substrate preincubated for 5 mins followed by substrate addition and measured after 2 mins by Ellman's reagent based enzyme immunoassay; format: ADME
T1 sequence (P35354 whole entry): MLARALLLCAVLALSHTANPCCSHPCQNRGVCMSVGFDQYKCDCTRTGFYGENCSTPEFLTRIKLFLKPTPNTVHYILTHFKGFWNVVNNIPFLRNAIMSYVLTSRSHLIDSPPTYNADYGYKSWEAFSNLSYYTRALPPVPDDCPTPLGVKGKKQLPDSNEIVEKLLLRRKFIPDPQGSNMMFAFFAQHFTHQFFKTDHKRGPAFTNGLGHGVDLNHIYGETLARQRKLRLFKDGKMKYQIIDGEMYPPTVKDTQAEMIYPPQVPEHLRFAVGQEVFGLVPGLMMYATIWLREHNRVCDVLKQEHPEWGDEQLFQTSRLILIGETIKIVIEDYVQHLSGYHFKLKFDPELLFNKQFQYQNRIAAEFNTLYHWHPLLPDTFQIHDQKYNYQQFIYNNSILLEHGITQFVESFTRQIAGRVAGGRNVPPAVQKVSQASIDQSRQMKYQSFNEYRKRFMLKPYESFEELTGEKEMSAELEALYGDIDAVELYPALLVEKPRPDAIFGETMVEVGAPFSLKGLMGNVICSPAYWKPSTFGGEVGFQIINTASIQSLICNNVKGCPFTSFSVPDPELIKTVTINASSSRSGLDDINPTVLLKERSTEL

[4] = Selectivity index, ratio of IC50 for recombinant human COX1 to recombinant human COX2
[5] = molecular target: T2, Bifunctional epoxide hydrolase 2 (Homo sapiens, UniProt P34913); assay: Inhibition of human sEH using epoxy flour 7 as substrate measured after 30 mins by cell-based fluorescence assay
T2 sequence (P34913 whole entry): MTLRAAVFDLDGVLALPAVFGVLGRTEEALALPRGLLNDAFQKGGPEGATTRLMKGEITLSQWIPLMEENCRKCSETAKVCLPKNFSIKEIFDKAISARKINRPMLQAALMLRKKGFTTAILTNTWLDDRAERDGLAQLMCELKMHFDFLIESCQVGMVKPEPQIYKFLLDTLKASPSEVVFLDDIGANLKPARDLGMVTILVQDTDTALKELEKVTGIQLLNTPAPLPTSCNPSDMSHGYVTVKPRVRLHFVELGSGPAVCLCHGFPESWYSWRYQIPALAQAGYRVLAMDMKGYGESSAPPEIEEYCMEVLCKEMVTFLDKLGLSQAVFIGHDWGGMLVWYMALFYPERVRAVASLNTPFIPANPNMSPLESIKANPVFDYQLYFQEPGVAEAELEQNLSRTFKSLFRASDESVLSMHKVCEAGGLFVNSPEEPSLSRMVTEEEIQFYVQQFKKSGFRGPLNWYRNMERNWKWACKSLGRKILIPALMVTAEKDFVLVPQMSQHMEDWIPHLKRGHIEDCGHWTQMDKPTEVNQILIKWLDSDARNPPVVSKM

Mus musculus [6] = assay: Analgesic activity in albino mouse assessed as inhibition of acetic acid-induced writhing at 10 mg/kg, po administered 1 hr prior to acetic acid challenge and measured after 5 to 15 mins relative to control; format: functional; conditions: time 60-75 min
Rattus norvegicus [7] = assay: Antiinflammatory activity in albino rat model of carrageenan-induced paw edema assessed as inhibition of paw edema at 50 mg/kg, po administered 1 hr prior to carrageenan challenge and measured after 1 hr by Vernier caliper method relative to control; format: functional; conditions: time 2 hrs
Rattus norvegicus [8] = assay: Antiinflammatory activity in albino rat model of carrageenan-induced paw edema assessed as inhibition of paw edema at 50 mg/kg, po administered 1 hr prior to carrageenan challenge and measured after 3 hrs by Vernier caliper method relative to control; format: functional; conditions: time 4 hrs
Rattus norvegicus [9] = assay: Antiinflammatory activity in albino rat model of carrageenan-induced paw edema assessed as inhibition of paw edema at 50 mg/kg, po administered 1 hr prior to carrageenan challenge and measured after 5 hrs by Vernier caliper method relative to control; format: functional; conditions: time 6 hrs
Rattus norvegicus [10] = assay: Cardioprotective activity in celecoxib-induced cardiotoxicity in albino Wistar rat assessed as change in serum TNFalpha level at 100 mg/kg, po administered for 2 weeks and measured on day 15 by ELISA (reference value: 748.67 +/- 43.15 pg/ml); format: functional; conditions: time 15 day
Rattus norvegicus [11] = assay: Cardioprotective activity in celecoxib-induced cardiotoxicity in albino Wistar rat assessed as change in serum troponin-I level at 100 mg/kg, po administered for 2 weeks and measured on day 15 by ELISA (reference value: 340 +/- 11.56 pg/ml); format: functional; conditions: time 15 day
Rattus norvegicus [12] = assay: Cardioprotective activity in celecoxib-induced cardiotoxicity in albino Wistar rat assessed as change in serum LDH level at 100 mg/kg, po administered for 2 weeks and measured on day 15 by spectrophotometry (reference value: 2091.3 +/- 99.9 IU/L); format: functional; conditions: time 15 day
Rattus norvegicus [13] = assay: Cardioprotective activity in celecoxib-induced cardiotoxicity in albino Wistar rat assessed as change in serum creatine kinase-MB level at 100 mg/kg, po administered for 2 weeks and measured on day 15 by spectrophotometry (reference value: 95.33 +/- 4 IU/L); format: functional; conditions: time 15 day
Rattus norvegicus [14] = assay: Cardioprotective activity in celecoxib-induced cardiotoxicity in albino Wistar rat assessed as restoration of GSH level in cardiac tissue at 100 mg/kg, po administered for 2 weeks and measured on day 15; format: functional, organism-based; conditions: time 15.0 day
[15] = Cardiotoxicity in albino Wistar rat assessed as change in serum PGI2 level at 100 mg/kg, po administered for 2 weeks and measured on day 15 by ELISA; format: toxicity, organism-based; conditions: in vivo, 360 h, time 15 day
Rattus norvegicus [16] = assay: Cardioprotective activity in celecoxib-induced cardiotoxicity in albino Wistar rat assessed as restoration of serum PGI2 level at 100 mg/kg, po administered for 2 weeks and measured on day 15 by ELISA; format: functional, organism-based; conditions: time 15.0 day
Rattus norvegicus [17] = assay: Cardioprotective activity in celecoxib-induced cardiotoxicity in albino Wistar rat assessed as reduction in congestion in myocardium blood vessel at 100 mg/kg, po administered for 2 weeks and measured on day 15 by H and E staining based histopathological analysis; format: functional, organism-based; conditions: time 15.0 day
Rattus norvegicus [18] = assay: Cardioprotective activity in celecoxib-induced cardiotoxicity in albino Wistar rat assessed as reduction in congestion in coronary artery at 100 mg/kg, po administered for 2 weeks and measured on day 15 by H and E staining based histopathological analysis; format: functional, organism-based; conditions: time 15.0 day
Rattus norvegicus [19] = assay: Cardioprotective activity in celecoxib-induced cardiotoxicity in albino Wistar rat assessed as reduction in edema in myocardium blood vessel at 100 mg/kg, po administered for 2 weeks and measured on day 15 by H and E staining based histopathological analysis; format: functional, organism-based; conditions: time 15.0 day
Rattus norvegicus [20] = assay: Cardioprotective activity in celecoxib-induced cardiotoxicity in albino Wistar rat assessed as reduction in edema in coronary artery at 100 mg/kg, po administered for 2 weeks and measured on day 15 by H and E staining based histopathological analysis; format: functional, organism-based; conditions: time 15.0 day

## NS(=O)(=O)c1ccc(-n2nc(NC(=O)NC34CC5CC(CC(C5)C3)C4)cc2-c2ccccc2)cc1
Mus musculus [1]
  fold change (FC): 1.83
[2]
  IC50: 11800 nM
[3]
  IC50: 1850 nM
[4]
  Ratio IC50: 6.41
[5]
  IC50: 0.55 nM
Mus musculus [6]
  inhibition in vivo at 10 mg/kg: 24.6%
Rattus norvegicus [7]
  inhibition in vivo at 50 mg/kg: 62.2%
Rattus norvegicus [8]
  inhibition in vivo at 50 mg/kg: 92%
Rattus norvegicus [9]
  inhibition in vivo at 50 mg/kg: 93.8%
Rattus norvegicus [10]
  Activity: 322 pg/mL
Rattus norvegicus [11]
  Activity: 150 pg/mL
Rattus norvegicus [12]
  Activity: 1585 IU/L
Rattus norvegicus [13]
  Activity: 22 IU/L
Rattus norvegicus [14]
  Activity: Active
[15]
  Activity: Toxic
Rattus norvegicus [16]
  Activity: Active
Rattus norvegicus [17]
  Activity: Active
Rattus norvegicus [18]
  Activity: Active
Rattus norvegicus [19]
  Activity: Active
Rattus norvegicus [20]
  Activity: Active

## NS(=O)(=O)c1ccc(-n2nc(NC(=O)NCCCC(=O)O)cc2-c2ccccc2)cc1
[5]
  IC50: 4.01 nM

## NS(=O)(=O)c1ccc(-n2nc(NC(=O)NC3CCCCC3)cc2-c2ccccc2)cc1
[5]
  IC50: 0.98 nM

## NS(=O)(=O)c1ccc(-n2nc(C(=O)NC3CCCCC3)cc2-c2ccccc2)cc1
[5]
  IC50: 2.38 nM

## CCOC(=O)C1CCN(C(=O)Nc2cc(-c3ccccc3)n(-c3ccc(S(N)(=O)=O)cc3)n2)CC1
[5]
  IC50: 1.74 nM

## NS(=O)(=O)c1ccc(-n2nc(C(=O)NCCCC(=O)O)cc2-c2ccccc2)cc1
[5]
  IC50: 1.84 nM

## NS(=O)(=O)c1ccc(-n2nc(C(=O)NCCCCCCCCCCC(=O)O)cc2-c2ccccc2)cc1
[5]
  IC50: 3.31 nM

## NS(=O)(=O)c1ccc(-n2nc(C(=O)Nc3ccc(C(F)(F)F)cc3)cc2-c2ccccc2)cc1
[5]
  IC50: 1.21 nM

## NS(=O)(=O)c1ccc(-n2nc(NC(=O)Nc3ccc(C(F)(F)F)cc3)cc2-c2ccccc2)cc1
[5]
  IC50: 0.4 nM

## CCOC(=O)C1CCN(C(=O)c2cc(-c3ccccc3)n(-c3ccc(S(N)(=O)=O)cc3)n2)CC1
[5]
  IC50: 1.61 nM

## Cc1ccc(-c2cc(C(F)(F)F)nn2-c2ccc(S(N)(=O)=O)cc2)cc1 [CELECOXIB]
Mus musculus [6]
  inhibition in vivo at 10 mg/kg: 13.4%
Rattus norvegicus [7]
  inhibition in vivo at 50 mg/kg: 81.2%
Rattus norvegicus [8]
  inhibition in vivo at 50 mg/kg: 82.7%
Rattus norvegicus [9]
  inhibition in vivo at 50 mg/kg: 88.3%
[15]
  Activity: Toxic

## NS(=O)(=O)c1ccc(-n2nc(NC(=O)NCCCCCCCCCCC(=O)O)cc2-c2ccccc2)cc1
[5]
  IC50: 1.57 nM

## NS(=O)(=O)c1ccc(-n2nc(C(=O)NC34CC5CC(CC(C5)C3)C4)cc2-c2ccccc2)cc1
Mus musculus [1]
  fold change (FC): 4.66
[2]
  IC50: 8990 nM
[3]
  IC50: 2150 nM
[4]
  Ratio IC50: 4.18
[5]
  IC50: 1.15 nM
Mus musculus [6]
  inhibition in vivo at 10 mg/kg: 62.7%
Rattus norvegicus [7]
  inhibition in vivo at 50 mg/kg: 42%
Rattus norvegicus [8]
  inhibition in vivo at 50 mg/kg: 76.5%
Rattus norvegicus [9]
  inhibition in vivo at 50 mg/kg: 84.2%
